Measurements reported in article PMC5218480 (PLoS ONE, 2017).

Test system: MV-4-11 cells
Test: Gene expression microarray analysis (Affymetrix PrimeView) and GSEA
Type: cell-based, human
Set-up: RFU PODN (11730768_x_at) / Fold change /veh PODN (11730768_x_at) / RFU LINC00158 (11744669_a_at) / Fold change /veh LINC00158 (11744669_a_at) / RFU DUSP10 (11751237_a_at) / Fold change /veh DUSP10 (11751237_a_at) / RFU ID3 (11757404_x_at) / Fold change /veh ID3 (11757404_x_at) / RFU PLEKHG5 (11737974_s_at) / Fold change /veh PLEKHG5 (11737974_s_at) / RFU LRRC4B (11730491_at) / Fold change /veh LRRC4B (11730491_at) / RFU GIMAP4 (11747438_a_at) / Fold change /veh GIMAP4 (11747438_a_at) / RFU KRT8 (11758183_x_at) / Fold change /veh KRT8 (11758183_x_at) / RFU CNN1 (11734310_a_at) / Fold change /veh CNN1 (11734310_a_at) / RFU VPS37D (11726825_at) / Fold change /veh VPS37D (11726825_at) / RFU C10orf10 (11716522_x_at) / Fold change /veh C10orf10 (11716522_x_at) / RFU KIR2DL2 /// KIR2DL4 /// KIR2DL5A /// KIR2DL5B /// KIR2DS1 /// KIR2DS2 /// KIR2DS3 /// KIR2DS4 /// KIR3DL3 /// KIR3DL3 /// KIR3DS1 (11738374_at) / Fold change /veh KIR2DL2 /// KIR2DL4 /// KIR2DL5A /// KIR2DL5B /// KIR2DS1 /// KIR2DS2 /// KIR2DS3 /// KIR2DS4 /// KIR3DL3 /// KIR3DL3 /// KIR3DS1 (11738374_at) / RFU C1QL1 (11718748_at) / Fold change /veh C1QL1 (11718748_at) / RFU TMPRSS4 (11747572_a_at) / Fold change /veh TMPRSS4 (11747572_a_at) / RFU HAMP (11756126_x_at) / Fold change /veh HAMP (11756126_x_at) / RFU RNFT2 (11725882_a_at) / Fold change /veh RNFT2 (11725882_a_at) / RFU NR4A2 (11747474_a_at) / Fold change /veh NR4A2 (11747474_a_at) / RFU ABCC12 (11746883_a_at) / Fold change /veh ABCC12 (11746883_a_at) / RFU TMEM136 (11760407_x_at) / Fold change /veh TMEM136 (11760407_x_at) / RFU CLDN22 /// WWC2 (11732394_at) / Fold change /veh CLDN22 /// WWC2 (11732394_at) / RFU HLA-DPB1 (11760878_x_at) / Fold change /veh HLA-DPB1 (11760878_x_at) / RFU SPINT1 (11716480_a_at) / Fold change /veh SPINT1 (11716480_a_at) / RFU GAP43 (11754022_s_at) / Fold change /veh GAP43 (11754022_s_at) / RFU A4GNT (11735810_at) / Fold change /veh A4GNT (11735810_at) / RFU PRB3 (11715151_x_at) / Fold change /veh PRB3 (11715151_x_at) / RFU TUBB4B (11761932_at) / Fold change /veh TUBB4B (11761932_at) / RFU CAPN14 (11732068_a_at) / Fold change /veh CAPN14 (11732068_a_at) / RFU TMCC2 (11721928_a_at) / Fold change /veh TMCC2 (11721928_a_at) / RFU IRGQ (11745062_a_at) / Fold change /veh IRGQ (11745062_a_at) / RFU FAM174B (11720279_a_at) / Fold change /veh FAM174B (11720279_a_at) / RFU TMPRSS4 (11748680_a_at) / Fold change /veh TMPRSS4 (11748680_a_at) / RFU FAM212B (11763350_a_at) / Fold change /veh FAM212B (11763350_a_at) / RFU PLEKHG5 (11743358_a_at) / Fold change /veh PLEKHG5 (11743358_a_at) / RFU ZSCAN30 (11745921_a_at) / Fold change /veh ZSCAN30 (11745921_a_at) / RFU CMKLR1 (11741424_a_at) / Fold change /veh CMKLR1 (11741424_a_at) / RFU LOC101060620 /// MAPK8IP1 (11723275_at) / Fold change /veh LOC101060620 /// MAPK8IP1 (11723275_at) / RFU SPTSSB (11747773_x_at) / Fold change /veh SPTSSB (11747773_x_at) / RFU PRSS12 (11739890_at) / Fold change /veh PRSS12 (11739890_at) / RFU BIN1 (11741810_x_at) / Fold change /veh BIN1 (11741810_x_at) / RFU WNT11 (11732464_a_at) / Fold change /veh WNT11 (11732464_a_at) / RFU C10orf10 (11716521_a_at) / Fold change /veh C10orf10 (11716521_a_at) / RFU C5orf56 (11738089_at) / Fold change /veh C5orf56 (11738089_at) / RFU CYB561 (11721691_x_at) / Fold change /veh CYB561 (11721691_x_at) / RFU ANKRD19P (11752326_a_at) / Fold change /veh ANKRD19P (11752326_a_at) / RFU OR2T12 /// OR2T33 /// OR2T8 (11738714_s_at) / Fold change /veh OR2T12 /// OR2T33 /// OR2T8 (11738714_s_at) / RFU VCAN (11748164_a_at) / Fold change /veh VCAN (11748164_a_at) / RFU JSRP1 (11732532_at) / Fold change /veh JSRP1 (11732532_at) / RFU KRTAP10-11 (11738290_x_at) / Fold change /veh KRTAP10-11 (11738290_x_at) / RFU MYO3A (11730013_a_at) / Fold change /veh MYO3A (11730013_a_at) / RFU EBF3 (11725865_a_at) / Fold change /veh EBF3 (11725865_a_at) / RFU CAMK2N1 (11719241_x_at) / Fold change /veh CAMK2N1 (11719241_x_at) / RFU C5orf56 (11738088_a_at) / Fold change /veh C5orf56 (11738088_a_at) / RFU OLFML3 (11715873_a_at) / Fold change /veh OLFML3 (11715873_a_at) / RFU LOC100653217 /// NTM (11731650_a_at) / Fold change /veh LOC100653217 /// NTM (11731650_a_at) / RFU MAPK11 (11762145_a_at) / Fold change /veh MAPK11 (11762145_a_at) / RFU FIZ1 (11724087_x_at) / Fold change /veh FIZ1 (11724087_x_at) / RFU OASL (11726364_x_at) / Fold change /veh OASL (11726364_x_at) / RFU SOX15 (11748057_x_at) / Fold change /veh SOX15 (11748057_x_at) / RFU CD79A (11719716_a_at) / Fold change /veh CD79A (11719716_a_at) / RFU HIST1H1D (11736915_at) / Fold change /veh HIST1H1D (11736915_at) / RFU CASKIN2 (11723855_a_at) / Fold change /veh CASKIN2 (11723855_a_at) / RFU LOC730098 (11760151_x_at) / Fold change /veh LOC730098 (11760151_x_at) / RFU OR4N2 (11742367_at) / Fold change /veh OR4N2 (11742367_at) / RFU PRRT2 (11749266_a_at) / Fold change /veh PRRT2 (11749266_a_at) / RFU SNX32 (11753110_a_at) / Fold change /veh SNX32 (11753110_a_at) / RFU CDHR5 (11726645_a_at) / Fold change /veh CDHR5 (11726645_a_at) / RFU RCAN1 (11760418_a_at) / Fold change /veh RCAN1 (11760418_a_at) / RFU FAM167A (11723789_a_at) / Fold change /veh FAM167A (11723789_a_at) / RFU FAM26E (11764081_at) / Fold change /veh FAM26E (11764081_at) / RFU ISYNA1 (11749810_s_at) / Fold change /veh ISYNA1 (11749810_s_at) / RFU ACY1 (11761880_at) / Fold change /veh ACY1 (11761880_at) / RFU 11764098_at / Fold change /veh 11764098_at / RFU SAMD14 (11745864_x_at) / Fold change /veh SAMD14 (11745864_x_at) / RFU NPB (11741838_a_at) / Fold change /veh NPB (11741838_a_at) / RFU TMPRSS6 (11731388_a_at) / Fold change /veh TMPRSS6 (11731388_a_at) / RFU KRTAP10-2 (11738614_at) / Fold change /veh KRTAP10-2 (11738614_at) / RFU ARHGAP8 /// PRR5-ARHGAP8 (11727945_x_at) / Fold change /veh ARHGAP8 /// PRR5-ARHGAP8 (11727945_x_at) / RFU KRTAP5-7 /// NADSYN1 (11734609_at) / Fold change /veh KRTAP5-7 /// NADSYN1 (11734609_at) / RFU RASL12 (11751679_a_at) / Fold change /veh RASL12 (11751679_a_at) / RFU CDKN2B (11736163_a_at) / Fold change /veh CDKN2B (11736163_a_at) / RFU PRF1 (11729649_at) / Fold change /veh PRF1 (11729649_at) / RFU, ZNF638 /// ZNF638-IT1 / Fold change vs veh, ZNF638 /// ZNF638-IT1 / RFU, PANK3 / Fold change vs veh, PANK3 / RFU, SH3YL1 / Fold change vs veh, SH3YL1 / RFU, ZEB2 / Fold change vs veh, ZEB2 / RFU, NRIP1 / Fold change vs veh, NRIP1 / RFU, PTTG1IP / Fold change vs veh, PTTG1IP / RFU, CAPN2 / Fold change vs veh, CAPN2 / RFU, MED14 / Fold change vs veh, MED14 / RFU, SNORA58 / Fold change vs veh, SNORA58 / RFU, C1orf63 / Fold change vs veh, C1orf63 / RFU, LRRFIP1 / Fold change vs veh, LRRFIP1 / RFU, NDUFAF7 / Fold change vs veh, NDUFAF7 / RFU, SLC12A2 / Fold change vs veh, SLC12A2 / RFU, IBTK / Fold change vs veh, IBTK / RFU, ESF1 / Fold change vs veh, ESF1 / Fold change vs veh, TMEM50B / RFU, TAOK1 / Fold change vs veh, TAOK1 / RFU, ACBD3 / Fold change vs veh, ACBD3 / RFU, TMA16 / Fold change vs veh, TMA16 / RFU, RWDD3 / Fold change vs veh, RWDD3 / RFU, BCAT1 / Fold change vs veh, BCAT1 / RFU, EDEM3 / Fold change vs veh, EDEM3 / RFU, TMEM33 / Fold change vs veh, TMEM33 / RFU, WDR75 / Fold change vs veh, WDR75 / RFU, AHCTF1 / Fold change vs veh, AHCTF1 / RFU, TFRC / Fold change vs veh, TFRC / RFU, ZDHHC17 / Fold change vs veh, ZDHHC17 / RFU, NOM1 / Fold change vs veh, NOM1 / RFU, ARL8B / Fold change vs veh, ARL8B / RFU, ZBTB11 / Fold change vs veh, ZBTB11 / RFU, TAMM41 / Fold change vs veh, TAMM41 / RFU, KIAA1704 /// LOC100996395 / Fold change vs veh, KIAA1704 /// LOC100996395 / RFU, ING1 / Fold change vs veh, ING1 / RFU, TRMT61B / Fold change vs veh, TRMT61B / RFU, FUBP3 / Fold change vs veh, FUBP3 / RFU, TP53 / Fold change vs veh, TP53 / RFU, TNKS2 / Fold change vs veh, TNKS2 / RFU, ZFP14 / Fold change vs veh, ZFP14 / RFU, ACTR2 / Fold change vs veh, ACTR2 / RFU, PPP3R1 / Fold change vs veh, PPP3R1 / RFU, PIK3R1 / Fold change vs veh, PIK3R1 / RFU, HNRNPA1 / Fold change vs veh, HNRNPA1 / RFU, RNF170 / Fold change vs veh, RNF170 / RFU, ZNF28 / Fold change vs veh, ZNF28 / RFU, RNGTT / Fold change vs veh, RNGTT / RFU, OGT / Fold change vs veh, OGT / RFU, BRD1 / Fold change vs veh, BRD1 / RFU, MARS / Fold change vs veh, MARS / RFU, ZNF655 / Fold change vs veh, ZNF655 / RFU, FAHD1 / Fold change vs veh, FAHD1 / RFU, BDP1 / Fold change vs veh, BDP1 / RFU, LRRCC1 / Fold change vs veh, LRRCC1 / RFU, ARID1A / Fold change vs veh, ARID1A / RFU, ZNF146 / Fold change vs veh, ZNF146 / RFU, ZNF330 / Fold change vs veh, ZNF330 / RFU, GPN3 / Fold change vs veh, GPN3 / RFU, C9orf123 / Fold change vs veh, C9orf123 / RFU, N4BP2L2 / Fold change vs veh, N4BP2L2 / RFU, ARFIP1 / Fold change vs veh, ARFIP1 / RFU, FAM179B / Fold change vs veh, FAM179B / RFU, BCL10 / Fold change vs veh, BCL10 / RFU, UHRF1BP1L / Fold change vs veh, UHRF1BP1L / RFU, BET1 / Fold change vs veh, BET1 / RFU, CNOT2 / Fold change vs veh, CNOT2 / RFU, ZNF268 / Fold change vs veh, ZNF268 / Fold change vs veh, ZNF507 / RFU, DGCR2 / Fold change vs veh, DGCR2 / RFU, WDSUB1 / Fold change vs veh, WDSUB1 / Fold change vs veh, HSP90B1 /// MIR3652 / RFU, ADSS / Fold change vs veh, ADSS / RFU, GK / Fold change vs veh, GK / RFU, ZNF148 / Fold change vs veh, ZNF148 / RFU, TAF9 / Fold change vs veh, TAF9 / RFU, SLC1A5 / Fold change vs veh, SLC1A5 / RFU, SLMO2 / Fold change vs veh, SLMO2 / RFU, ABCC4 / Fold change vs veh, ABCC4 / RFU, LOC101060439 /// RAP1B / Fold change vs veh, LOC101060439 /// RAP1B / RFU, RFX7 / Fold change vs veh, RFX7 / RFU, GTPBP10 / Fold change vs veh, GTPBP10 / RFU, CNEP1R1 / Fold change vs veh, CNEP1R1 / RFU, BIVM-ERCC5 /// ERCC5 / Fold change vs veh, BIVM-ERCC5 /// ERCC5 / RFU, ILF3 / Fold change vs veh, ILF3 / RFU 11762660_at / Fold change /veh 11762660_at / RFU VCAN (11757783_s_at) / Fold change /veh VCAN (11757783_s_at) / RFU DDX43 (11728927_at) / Fold change /veh DDX43 (11728927_at) / RFU KRT8 (11758188_x_at) / Fold change /veh KRT8 (11758188_x_at) / RFU NKD1 (11759106_at) / Fold change /veh NKD1 (11759106_at) / RFU SRD5A1 (11742802_a_at) / Fold change /veh SRD5A1 (11742802_a_at) / RFU TPSAB1 /// TPSB2 (11721975_s_at) / Fold change /veh TPSAB1 /// TPSB2 (11721975_s_at) / RFU GSTM3 (11746129_a_at) / Fold change /veh GSTM3 (11746129_a_at) / RFU IL23R (11737362_x_at) / Fold change /veh IL23R (11737362_x_at) / RFU TMEM51 (11727254_a_at) / Fold change /veh TMEM51 (11727254_a_at) / RFU PIWIL2 (11732686_x_at) / Fold change /veh PIWIL2 (11732686_x_at) / RFU ORM1 (11744905_x_at) / Fold change /veh ORM1 (11744905_x_at) / RFU CCDC152 (11743942_at) / Fold change /veh CCDC152 (11743942_at) / RFU ECM1 (11717891_a_at) / Fold change /veh ECM1 (11717891_a_at) / RFU IL23R (11748794_a_at) / Fold change /veh IL23R (11748794_a_at) / RFU TNFAIP8L3 (11732012_x_at) / Fold change /veh TNFAIP8L3 (11732012_x_at) / RFU MBOAT4 (11741988_at) / Fold change /veh MBOAT4 (11741988_at) / RFU 11764193_at / Fold change /veh 11764193_at / RFU TMEM53 (11763286_at) / Fold change /veh TMEM53 (11763286_at) / RFU MAGEB2 (11727129_at) / Fold change /veh MAGEB2 (11727129_at) / RFU TMEM200A (11744735_a_at) / Fold change /veh TMEM200A (11744735_a_at) / RFU CCDC152 (11751479_a_at) / Fold change /veh CCDC152 (11751479_a_at) / RFU FAM211A (11726209_a_at) / Fold change /veh FAM211A (11726209_a_at) / RFU RGS16 (11746705_a_at) / Fold change /veh RGS16 (11746705_a_at) / RFU VCAN (11755009_s_at) / Fold change /veh VCAN (11755009_s_at) / RFU RHOB (11743442_s_at) / Fold change /veh RHOB (11743442_s_at) / RFU RGS16 (11720943_a_at) / Fold change /veh RGS16 (11720943_a_at) / RFU RGS16 (11720944_at) / Fold change /veh RGS16 (11720944_at) / RFU, VPS4B / Fold change vs veh, VPS4B / RFU, CREB1 / Fold change vs veh, CREB1 / RFU, DNAJC13 / Fold change vs veh, DNAJC13 / RFU, GNAQ / Fold change vs veh, GNAQ / RFU, CDK5R1 / Fold change vs veh, CDK5R1 / RFU, ZRANB3 / Fold change vs veh, ZRANB3 / RFU, CUL4A / Fold change vs veh, CUL4A / RFU, CCNY / Fold change vs veh, CCNY / RFU, UFL1 / Fold change vs veh, UFL1 / RFU, COG3 / Fold change vs veh, COG3 / RFU, DIAPH2 / Fold change vs veh, DIAPH2 / RFU, SKA2 / Fold change vs veh, SKA2 / RFU, AFF3 / Fold change vs veh, AFF3 / RFU, LMF1 / Fold change vs veh, LMF1 / RFU, IPO11 / Fold change vs veh, IPO11 / RFU, DFFB / Fold change vs veh, DFFB / RFU, FOXP1 / Fold change vs veh, FOXP1 / RFU, CARD8 / Fold change vs veh, CARD8 / RFU, STRN3 / Fold change vs veh, STRN3 / RFU, ADK / Fold change vs veh, ADK / RFU, RASSF2 / Fold change vs veh, RASSF2 / RFU, WIPF1 / Fold change vs veh, WIPF1 / RFU, LARP1B / Fold change vs veh, LARP1B / RFU, RASA1 / Fold change vs veh, RASA1 / RFU, RB1 / Fold change vs veh, RB1 / RFU, PPFIA1 / Fold change vs veh, PPFIA1 / RFU, MAT2A / Fold change vs veh, MAT2A / RFU, CCT5 / Fold change vs veh, CCT5 / RFU, WDR92 / Fold change vs veh, WDR92 / RFU, CUX1 / Fold change vs veh, CUX1 / RFU, TTC7A / Fold change vs veh, TTC7A / RFU, TMEM135 / Fold change vs veh, TMEM135 / RFU, DEPTOR / Fold change vs veh, DEPTOR / RFU, CPM / Fold change vs veh, CPM / RFU, DNAJB6 / Fold change vs veh, DNAJB6 / RFU, CACNA2D3 / Fold change vs veh, CACNA2D3 / RFU, DTX4 / Fold change vs veh, DTX4 / RFU, TFCP2 / Fold change vs veh, TFCP2 / RFU, GMCL1 /// GMCL1P1 / Fold change vs veh, GMCL1 /// GMCL1P1 / RFU, AEBP2 / Fold change vs veh, AEBP2 / RFU, SNHG1 /// SNORD22 /// SNORD25 /// SNORD26 /// SNORD27 /// SNORD28 /// SNORD29 /// SNORD31 / Fold change vs veh, SNHG1 /// SNORD22 /// SNORD25 /// SNORD26 /// SNORD27 /// SNORD28 /// SNORD29 /// SNORD31 / Fold change (Aza/veh), C12orf56 (ProbeSet 11735607_a_at) / Fold change (ACY-1035/veh), C12orf56 (ProbeSet 11735607_a_at) / Fold change (Aza/veh), FGFR1OP (ProbeSet 11751329_s_at) / Fold change (ACY-1035/veh), FGFR1OP (ProbeSet 11751329_s_at) / Fold change (Aza/veh), VPS36 (ProbeSet 11739960_a_at) / Fold change (ACY-1035/veh), VPS36 (ProbeSet 11739960_a_at) / RFU SYPL1 (11715823_x_at) / Fold change /veh SYPL1 (11715823_x_at) / RFU IGFBP7 (11715501_s_at) / Fold change /veh IGFBP7 (11715501_s_at) / RFU REEP3 (11722064_at) / Fold change /veh REEP3 (11722064_at) / RFU IGLL1 (11728026_x_at) / Fold change /veh IGLL1 (11728026_x_at): dose or concentration left out as unconfirmed
Settings: ProbeSet 11716331_a_at; LIST D

Nc1ncn([C@@H]2O[C@H](CO)[C@@H](O)[C@H]2O)c(=O)n1 [azacitidine]
RFU, DNAJB6: 212.79 RFU
